Assay results from PubChem BioAssay AID248 (DTP/NCI, 2004).
Values joined by “and” are separate entries in the source; they are usually repeats but may differ in a detail not shown here. Equal values may be shown once. Toxic doses and inconclusive results are not listed. Rule as the data show it: active = T/C of 150% or more; inactive = T/C below 125%.

Test system: L1210 leukemia ip in BDF1 mice, survival T/C
Experiment: NCI In Vivo Anticancer Drug Screen. Data for tumor model L1210 Leukemia (intraperitoneal) in B6D2F1 (BDF1) mice
Conditions: endpoint: mean survival time, higher = longer survival
How it was run: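 Tumor cells were implanted, animals were treated, and survival was followed. The result divides the treated measurement by the vehicle-control measurement.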

[1] = dose: 100.0 mg/kg/injection, schedule: Q01DX009 (ip), vehicle: other
[2] = dose: 200.0 mg/kg/injection, schedule: Q01DX009 (ip), vehicle: other
[3] = dose: 100.0 mg/kg/injection, schedule: Q01DX001 (ip), vehicle: saline
[4] = dose: 200.0 mg/kg/injection, schedule: Q01DX001 (ip), vehicle: saline
[5] = dose: 100.0 mg/kg/injection, schedule: Q04DX003 (ip), vehicle: saline with Tween-80
[6] = dose: 200.0 mg/kg/injection, schedule: Q04DX003 (ip), vehicle: saline with Tween-80
[7] = dose: 100.0 mg/kg/injection, schedule: Q01DX009 (ip), vehicle: saline with Tween-80
[8] = dose: 100.0 mg/kg/injection, schedule: Q04DX003 (ip), vehicle: Klucel (hydroxypropylcellulose) (HPC)
[9] = dose: 200.0 mg/kg/injection, schedule: Q01DX009 (ip), vehicle: saline with Tween-80
[10] = dose: 200.0 mg/kg/injection, schedule: Q04DX003 (ip), vehicle: Klucel (hydroxypropylcellulose) (HPC)
[11] = dose: 400.0 mg/kg/injection, schedule: Q04DX003 (ip), vehicle: Klucel (hydroxypropylcellulose) (HPC)
[12] = dose: 25.0 mg/kg/injection, schedule: Q01DX009 (ip), vehicle: Klucel (hydroxypropylcellulose) (HPC)
[13] = dose: 50.0 mg/kg/injection, schedule: Q01DX009 (ip), vehicle: Klucel (hydroxypropylcellulose) (HPC)
[14] = dose: 100.0 mg/kg/injection, schedule: Q01DX009 (ip), vehicle: Klucel (hydroxypropylcellulose) (HPC)
[15] = dose: 400.0 mg/kg/injection, schedule: Q01DX009 (ip), vehicle: saline with Tween-80
[16] = dose: 400.0 mg/kg/injection, schedule: Q04DX003 (ip), vehicle: saline with Tween-80
[17] = dose: 200.0 mg/kg/injection, schedule: Q01DX009 (ip), vehicle: Klucel (hydroxypropylcellulose) (HPC)

Measured: T/C

CCCCCCCCCCCC(=O)O.[Cr]
inactive: [1] 93 % of control | dose: 100.0 mg/kg/injection, schedule: Q04DX003 (ip), vehicle: other 97 % of control | [2] 95 % of control | dose: 200.0 mg/kg/injection, schedule: Q04DX003 (ip), vehicle: other 102 % of control | dose: 400.0 mg/kg/injection, schedule: Q01DX009 (ip), vehicle: other 92 % of control | dose: 400.0 mg/kg/injection, schedule: Q04DX003 (ip), vehicle: other 91 % of control

ClCC(Cl)C1CCC(Cl)C(Cl)C1 (stereo not drawn)
inactive: dose: 50.0 mg/kg/injection, schedule: Q01DX009 (ip), vehicle: other 95 % of control | [1] 90 % of control | [2] 90 % of control

CS(=O)(=O)OC12CC3CC(CC(C3)C1)C2
inactive: dose: 50.0 mg/kg/injection, schedule: Q01DX009 (ip), vehicle: saline 96 % of control | [3] 90 % of control | dose: 100.0 mg/kg/injection, schedule: Q01DX009 (ip), vehicle: saline 96 % of control | [4] 98 % of control | dose: 200.0 mg/kg/injection, schedule: Q01DX009 (ip), vehicle: saline 94 % of control

O=[N+]([O-])c1ccc2c(c1)S(=O)c1ccccc1-2 (stereo not drawn)
inactive: [5] 109 % of control | [6] 94 % of control

Cc1nc2[nH]cnc(=S)c2[nH]1
inactive: dose: 100.0 mg/kg/injection, schedule: Q01DX001 (ip), vehicle: other 107 % of control | dose: 200.0 mg/kg/injection, schedule: Q01DX001 (ip), vehicle: other 103 % of control

CSC1SCC2C(=O)N(C)C(C(C)C)C(=O)OCC(NC(=O)c3cnc4ccccc4n3)C(=O)NC(C)C(=O)N(C)C1C(=O)N(C)C(C(C)C)C(=O)OCC(NC(=O)c1cnc3ccccc3n1)C(=O)NC(C)C(=O)N2C (stereo not drawn)
inactive: dose: 0.4 micrograms/kg/injection, schedule: Q01DX009 (ip), vehicle: saline with Tween-80 97 % of control | dose: 0.9 micrograms/kg/injection, schedule: Q01DX009 (ip), vehicle: saline with Tween-80 102 % of control | dose: 1.9 micrograms/kg/injection, schedule: Q01DX009 (ip), vehicle: saline with Tween-80 97 % of control | dose: 3.8 micrograms/kg/injection, schedule: Q01DX009 (ip), vehicle: saline with Tween-80 102 % of control | dose: 7.5 micrograms/kg/injection, schedule: Q01DX009 (ip), vehicle: saline with Tween-80 115 % of control | dose: 15.0 micrograms/kg/injection, schedule: Q01DX009 (ip), vehicle: saline with Tween-80 117 % of control

Cc1cc2ccccc2[n+](C)c1-c1ccccc1Br
inactive: dose: 5.0 mg/kg/injection, schedule: Q01DX001 (ip), vehicle: saline 108 % of control | dose: 10.0 mg/kg/injection, schedule: Q01DX001 (ip), vehicle: saline 95 % of control

O=C(Nc1ccccc1)Nc1ccccc1
inactive: dose: 50.0 mg/kg/injection, schedule: Q01DX009 (ip), vehicle: saline with Tween-80 96 % of control | [3] 97 % of control | [7] 91 % of control | [8] 90 % of control | [4] 92 % of control | [9] 103 % of control | [10] 95 % of control | dose: 400.0 mg/kg/injection, schedule: Q01DX001 (ip), vehicle: saline 94 % of control | [11] 96 % of control

NC(=O)c1ccccc1OC(=O)Nc1cc([N+](=O)[O-])ccc1F
inactive: [12] 104 % of control | [13] 107 % of control | [14] 94 % of control and 92 % of control

CCN(CC)CCN1C(=O)CN=C(c2ccc[nH]2)c2cc(Cl)ccc21
inactive: [7] 121 % of control | [5] 100 % of control | [9] 106 % of control | [6] 94 % of control | [15] 117 % of control | [16] 96 % of control

NCCCCc1nc(N)nc(N)c1-c1ccc(Cl)cc1
inactive: dose: 25.0 mg/kg/injection, schedule: Q01DX001 (ip), vehicle: saline 104 % of control | dose: 50.0 mg/kg/injection, schedule: Q01DX001 (ip), vehicle: saline 96 % of control | [3] 102 % of control

CCC(C)NC(=O)Oc1cccc(NC(=O)N(C)C)c1 (stereo not drawn)
inactive: [5] 92 % of control | [6] 89 % of control | [16] 90 % of control

O=C(O)COc1ccc(F)c(F)c1F
inactive: dose: 100.0 mg/kg/injection, schedule: Q04DX002 (ip), vehicle: other 107 % of control | dose: 200.0 mg/kg/injection, schedule: Q04DX002 (ip), vehicle: other 100 % of control | dose: 400.0 mg/kg/injection, schedule: Q04DX002 (ip), vehicle: other 91 % of control

COc1cc(/C=N/NC(=O)c2ccccc2)cc(OC)c1OC
inactive: [7] 97 % of control | [5] 90 % of control | [9] 92 % of control | [6] 91 % of control | [15] 97 % of control | [16] 90 % of control

COc1ccc(CNCCC(=O)O)cc1OC
inactive: dose: 50.0 mg/kg/injection, schedule: Q01DX001 (ip), vehicle: carboxymethylcellulose (CMC) 107 % of control | dose: 100.0 mg/kg/injection, schedule: Q01DX001 (ip), vehicle: carboxymethylcellulose (CMC) 100 % of control | dose: 200.0 mg/kg/injection, schedule: Q01DX001 (ip), vehicle: carboxymethylcellulose (CMC) 105 % of control | dose: 400.0 mg/kg/injection, schedule: Q01DX001 (ip), vehicle: carboxymethylcellulose (CMC) 105 % of control

CNC(=S)N/N=C(\C)CSC/C(C)=N/NC(=S)NC
inactive: dose: 1.56 mg/kg/injection, schedule: Q03HX024 (ip), vehicle: Klucel (hydroxypropylcellulose) (HPC) 97 % of control | dose: 3.12 mg/kg/injection, schedule: Q01DX009 (ip), vehicle: Klucel (hydroxypropylcellulose) (HPC) 95 % of control | dose: 3.12 mg/kg/injection, schedule: Q03HX024 (ip), vehicle: Klucel (hydroxypropylcellulose) (HPC) 93 % of control | dose: 6.25 mg/kg/injection, schedule: Q01DX009 (ip), vehicle: Klucel (hydroxypropylcellulose) (HPC) 92 % of control | dose: 6.25 mg/kg/injection, schedule: Q03HX024 (ip), vehicle: Klucel (hydroxypropylcellulose) (HPC) 92 % of control | dose: 6.25 mg/kg/injection, schedule: Q04DX003 (ip), vehicle: Klucel (hydroxypropylcellulose) (HPC) 95 % of control | dose: 12.5 mg/kg/injection, schedule: Q01DX009 (ip), vehicle: Klucel (hydroxypropylcellulose) (HPC) 93 % of control | dose: 12.5 mg/kg/injection, schedule: Q03HX024 (ip), vehicle: Klucel (hydroxypropylcellulose) (HPC) 95 % of control | dose: 12.5 mg/kg/injection, schedule: Q04DX003 (ip), vehicle: Klucel (hydroxypropylcellulose) (HPC) 102 % of control | [12] 109 % of control | dose: 25.0 mg/kg/injection, schedule: Q03HX024 (ip), vehicle: Klucel (hydroxypropylcellulose) (HPC) 103 % of control | dose: 25.0 mg/kg/injection, schedule: Q04DX003 (ip), vehicle: Klucel (hydroxypropylcellulose) (HPC) 97 % of control | dose: 30.0 mg/kg/injection, schedule: Q04DX003 (ip), vehicle: saline 98 % of control | [13] 104 % of control | dose: 50.0 mg/kg/injection, schedule: Q03HX024 (ip), vehicle: Klucel (hydroxypropylcellulose) (HPC) 106 % of control | dose: 60.0 mg/kg/injection, schedule: Q04DX003 (ip), vehicle: saline 98 % of control | [14] 108 % of control | dose: 100.0 mg/kg/injection, schedule: Q03HX024 (ip), vehicle: Klucel (hydroxypropylcellulose) (HPC) 116 % of control | [8] 92 % of control | dose: 120.0 mg/kg/injection, schedule: Q04DX003 (ip), vehicle: saline 101 % of control | [17] 96 % of control | [10] 107 % of control | [11] 98 % of control

CCCCCCCCCC(Br)C(C)(C)COO (stereo not drawn)
inactive: dose: 50.0 mg/kg/injection, schedule: Q01DX001 (ip), vehicle: water 97 % of control | dose: 100.0 mg/kg/injection, schedule: Q01DX001 (ip), vehicle: water 101 % of control | dose: 200.0 mg/kg/injection, schedule: Q01DX001 (ip), vehicle: water 102 % of control

O=Cc1csc2ncccc12
inactive: [5] 103 % of control | [6] 100 % of control | [16] 105 % of control

CCOc1ccc(Br)cc1/C=C1\N=C(c2ccccc2)OC1=O
inactive: [14] 93 % of control and 95 % of control | [8] 97 % of control and 98 % of control | [17] 93 % of control and 98 % of control | [10] 98 % of control and 89 % of control | dose: 400.0 mg/kg/injection, schedule: Q01DX009 (ip), vehicle: Klucel (hydroxypropylcellulose) (HPC) 96 % of control and 86 % of control | [11] 93 % of control and 98 % of control
